This experiment addresses human P2X3 receptor (Homo sapiens (Human), UniProt P56373). The experiment is described as follows: Evaluation of human P2X3 receptor inhibitory activity (ATP-induced Fluo-3 fluorescence, FDSS 3000). The note with it: C6BU-1 cell transfected with human P2X3 receptor gene. The class given is cell-based. The protocol:
The plate was placed in High-Throughput Screening System FDSS 3000 (Hamamatsu Photonics K.K.). […] Five minutes after, 50 nM ATP solution (50 μL) prepared by dilution with the dilution buffer was dispensed through the built-in automatic dispenser, and the measurement of fluorescence intensity was continued for 3 min. For each well, the specific maximum fluorescence intensity was calculated as the ratio of the maximum fluorescence intensity after addition of the ATP solution to the fluorescence intensity at the starting of the measurement. […] FDSS software (Hamamatsu Photonics K.K.) was used for calculation of the specific maximum fluorescence intensity. IC50 was calculated using Microsoft Excel (Microsoft. Corporation) and XLfit (idbs Ltd.)
The aforementioned in mM, μM and nM are each means mmol/L, μmol/L and nmol/L, respectively.
In tables, μM means μmol/L.
human P2X3 receptor, sequence (P56373 whole entry): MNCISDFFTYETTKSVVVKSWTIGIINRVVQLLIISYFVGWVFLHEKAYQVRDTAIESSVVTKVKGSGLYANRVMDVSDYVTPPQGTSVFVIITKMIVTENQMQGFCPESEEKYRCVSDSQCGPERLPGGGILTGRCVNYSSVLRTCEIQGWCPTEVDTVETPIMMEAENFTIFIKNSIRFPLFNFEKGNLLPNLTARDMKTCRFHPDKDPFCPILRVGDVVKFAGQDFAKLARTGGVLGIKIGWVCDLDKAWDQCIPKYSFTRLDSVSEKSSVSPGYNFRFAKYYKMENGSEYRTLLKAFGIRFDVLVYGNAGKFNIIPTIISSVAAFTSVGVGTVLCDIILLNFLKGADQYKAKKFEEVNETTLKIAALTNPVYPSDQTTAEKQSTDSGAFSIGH
Turning to `CC(C)Oc1ccc(Nc2ncc(N3CCOCC3)c(=O)n2Cc2ccc(Cl)cc2)cc1F` [I-138, 2-(3-fluoro-4-isopropoxyphenylamino)-3-(4-chlorobenzyl)-5-(morpholino)pyrimidine-4(3H)-one], the IC50 – broadly, the concentration that gives 50% inhibition – was 201 nM. Then `CC(C)Oc1ccc(Nc2ncc(/C=C/C(=O)O)c(=O)n2Cc2ccc(Cl)cc2)cc1Cl` [I-139, 2-(3-chloro-4-isopropoxyphenylamino)-3-(4-chlorobenzyl)-5-(2-hydroxycarbonylethenyl) pyrimidine-4(3H)-one], with 331 nM; and `CC(C)Oc1ccc(Nc2nc(=O)c(C(=O)NCCO)cn2Cc2ccc(Cl)cc2)cc1F` [I-146, 1-(4-chlorobenzyl)-2-(3-fluoro-4-isopropoxyphenylamino)-5-[N-(2-hydroxyethyl)carbamoyl]pyrimidine-4(1H)-one], with 383 nM. Then `CCOC(=O)c1cn(Cc2ccc(Cl)cc2)c2cc(Nc3ccccc3)ccc2c1=O` [I-148, 1-(4-chlorobenzyl)-7-(phenylamino)-3-(ethoxycarbonyl)quinoline-4(1H)-one], with 324 nM. `CC(C)Oc1ccc(Nc2nc(=O)c(C(=O)NC(CO)CO)cn2Cc2ccc(Cl)cc2)cc1F` [I-150]: the IC50 stood at 120 nM. Against the preceding molecule, the IC50 is about 2.7-fold lower. As for `CC(C)Oc1ccc(Nc2ncc(C(=O)NCCO)c(=O)n2Cc2ccc(Cl)cc2)cc1F` [I-152], the IC50 was 96 nM. Next, `CC(C)Oc1ccc(Nc2ncc(C(=O)NC(CO)CO)c(=O)n2Cc2ccc(Cl)cc2)cc1F` [I-153]: 59 nM; `CC(C)Oc1ccc(Nc2ncc(C(=O)N(C)CCO)c(=O)n2Cc2ccc(Cl)cc2)cc1F` [I-156]: 509 nM. Then `CCOC(=O)/C=C/c1cnc(Nc2ccc(OC(C)C)c(F)c2)n(Cc2ccc(Cl)cc2)c1=O` [I-157], with 589 nM; and `CC(C)Oc1ccc(Nc2ncc(NC(=O)OC(C)(C)C)c(=O)n2Cc2ccc(Cl)cc2)cc1F` [I-158], with 20 nM. With `COC(=O)[C@H](C)NC(=O)c1cnc(Nc2ccc(OC(C)C)c(F)c2)n(Cc2ccc(Cl)cc2)c1=O` [I-164], the IC50 was determined as 18 nM. Next, `CNc1ncc(Nc2cccc(C(F)(F)F)c2)c(Cc2ccc(Cl)cc2)n1` [I-190]: 990 nM. Then `COC(=O)[C@@H](C)NC(=O)c1cnc(Nc2ccc(OC(C)C)c(F)c2)n(Cc2ccc(Cl)cc2)c1=O` [I-197], with 98 nM; and `CC(C)Oc1ccc(Nc2ncc(C(=O)N[C@@H](C)C(=O)O)c(=O)n2Cc2ccc(Cl)cc2)cc1F` [I-201], with 229 nM; and `CC(C)Oc1ccc(Nc2ncc(N(C)C(=O)OC(C)(C)C)c(=O)n2Cc2ccc(Cl)cc2)cc1F` [I-208], with 50 nM.

`CC(C)Oc1ccc(Nc2nc(=O)c(N3CCOCC3)cn2Cc2ccc(Cl)cc2)cc1F` [I-209]: the IC50 came to 397 nM. Then `COC(=O)[C@@H](C)Cn1c(=O)cc(Nc2ccc(OC(C)C)c(C)c2)n(Cc2ccc(Cl)cc2)c1=O` [I-212], with 37 nM; and `COC(=O)[C@@H](C)Cn1c(=O)cc(Nc2ccc(OC(C)C)cn2)n(Cc2ccc(Cl)cc2)c1=O` [I-213], with 427 nM.

Take `COC(=O)[C@@H](C)Cn1c(=O)cc(Nc2ccc(OC(C)C)cc2)n(Cc2ccc(Cl)cc2)c1=O` [I-216]: inhibition was half-maximal at 105 nM (IC50). Compared with the last molecule, the IC50 is about 4.1-fold lower. As to `CC(C)Oc1ccc(Nc2cc(=O)n(C[C@H](C)C(=O)O)c(=O)n2Cc2ccc(Cl)cc2)nc1` [I-217], the IC50 was determined as 453 nM. `CC(C)Oc1ccc(Nc2cc(=O)n(C[C@H](C)C(=O)O)c(=O)n2Cc2ccc(Cl)cc2)cc1` [I-218] yielded an IC50 of 55 nM. `CNc1cnc(Nc2ccc(OC(C)C)c(F)c2)n(Cc2ccc(Cl)cc2)c1=O` [I-222]: the IC50 was determined as 560 nM.

Turning to `CC(C)Oc1ccc(Nc2ncc(NCCCO)c(=O)n2Cc2ccc(Cl)cc2)cc1F` [I-223], half-maximal inhibition (IC50) was put at 724 nM.

Molecule `CC(C)Oc1ccc(Nc2ncc(NCC3CCOCC3)c(=O)n2Cc2ccc(Cl)cc2)cc1F` [I-224] displayed a half-inhibitory concentration (IC50) of 511 nM. Next, `CC(C)Oc1ccc(Nc2nc(=O)c3cc(C(F)(F)F)ccc3n2Cc2ccc(Cl)cc2)cc1Cl` [I-227, 1-(4-chlorobenzyl)-2-(3-chloro-4-isopropoxyphenylamine)-6-trifluoromethylquinazoline-4(3H)-one]: 974 nM; `CC(C)Oc1ccc(Nc2nc(=O)c(NC(=O)OC(C)(C)C)cn2Cc2ccc(Cl)cc2)cc1F` [I-230]: 92 nM; `CC(C)Oc1ccc(Nc2ncc(NC(=O)CCC(=O)O)c(=O)n2Cc2ccc(Cl)cc2)cc1F` [I-231]: 226 nM. Next, `CC(C)Oc1ccc(Nc2ncc(CCC(=O)O)c(=O)n2Cc2ccc(Cl)cc2)cc1F` [I-232]: 681 nM; `CC(C)Oc1ccc(Nc2ncc(NC(=O)CC3CCOCC3)c(=O)n2Cc2ccc(Cl)cc2)cc1F` [I-233]: 49 nM. Next, `CC(C)Oc1ccc(Nc2ncc(NC(=O)C3CCOCC3)c(=O)n2Cc2ccc(Cl)cc2)cc1F` [I-234, 2-(3-fluoro-4-isopropoxyphenylamino)-3-(4-chlorobenzyl)-5-(tetrahydro-2H-pyrane-4-ylcarbonylamino)pyrimidine-4(3H)-one]: 4 nM. `CC(C)Oc1ccc(Nc2ncc(NC(=O)C3CCOCC3)c(=O)n2Cc2ccc(Cl)cc2)cc1` [I-235] returned an IC50 of 11 nM.

Take `CC(C)Oc1ccc(Nc2ncc(NC(=O)C3CCOCC3)c(=O)n2Cc2ccc(Cl)cc2)cc1Cl` [I-236]: 6 nM corresponded to half-maximal inhibition (IC50). The molecule `Cc1cc(Nc2ncc(NC(=O)C3CCOCC3)c(=O)n2Cc2ccc(Cl)cc2)ccc1OC(C)C` [I-237] displayed an IC50 of 13 nM.

`CC(C)Oc1ccc(Nc2nc(=O)c(NC(=O)C3CCOCC3)cn2Cc2ccc(Cl)cc2)cc1F` [I-238]: half-maximal inhibition (IC50) was put at 653 nM. Molecule `CC(C)Oc1ccc(Nc2nc(=O)c(NC=O)cn2Cc2ccc(Cl)cc2)cc1F` [I-239] returned an IC50 of 515 nM.

Molecule `COCCC(=O)Nc1cn(Cc2ccc(Cl)cc2)c(Nc2ccc(OC(C)C)c(F)c2)nc1=O` [I-240] gave an IC50 of 417 nM.

The molecule `CC(C)Oc1ccc(Nc2ncc(C(=O)NC3CCOCC3)c(=O)n2Cc2ccc(Cl)cc2)cc1F` [I-242] yielded an IC50 of 67 nM. Compared with the last molecule, the IC50 is about 6.2-fold lower. Take `CC(C)Oc1ccc(Nc2ncc(N)c(=O)n2Cc2ccc(Cl)cc2)cc1F` [I-243]: the 50% inhibitory concentration (IC50) came out at 676 nM. Against the preceding molecule, the IC50 is about 10-fold higher. With `O=C(Nc1cnc(Nc2ccc(Oc3cc[nH]c(=O)c3)cc2)n(Cc2ccc(Cl)cc2)c1=O)C1CCOCC1` [I-244], the IC50 turned out to be 2 nM. This IC50 lies about 340-fold lower than the previous one.

`O=C(Nc1cnc(Nc2ccc(Oc3cncc(F)c3)cc2)n(Cc2ccc(Cl)cc2)c1=O)C1CCOCC1` [I-245] displayed an IC50 of 0.8 nM. On to `CC(=O)Nc1cnc(Nc2ccc(OC(C)C)c(F)c2)n(Cc2ccc(Cl)cc2)c1=O` [I-246], for which the IC50 stood at 106 nM. Against the preceding molecule, the IC50 is about 130-fold higher.

`CC(C)Oc1ccc(Nc2ncc(NC(=O)C(C)C)c(=O)n2Cc2ccc(Cl)cc2)cc1F` [I-247] came in with an IC50 of 19 nM. Then `COCCC(=O)Nc1cnc(Nc2ccc(OC(C)C)c(F)c2)n(Cc2ccc(Cl)cc2)c1=O` [I-248], with 24 nM; and `COCC(=O)Nc1cnc(Nc2ccc(OC(C)C)c(F)c2)n(Cc2ccc(Cl)cc2)c1=O` [I-249], with 35 nM; and `CCNC(=O)Nc1cnc(Nc2ccc(OC(C)C)c(F)c2)n(Cc2ccc(Cl)cc2)c1=O` [I-250], with 7 nM.

In turn, `CC(C)Oc1ccc(Nc2ncc(NS(C)(=O)=O)c(=O)n2Cc2ccc(Cl)cc2)cc1F` [I-252] registered an IC50 of 62 nM. The molecule `CC(C)Oc1ccc(Nc2ncc(N(S(C)(=O)=O)S(C)(=O)=O)c(=O)n2Cc2ccc(Cl)cc2)cc1F` [I-253] gave an IC50 of 536 nM.

The molecule `CC(C)Oc1ccc(Nc2ncc(NC(=O)C(=O)O)c(=O)n2Cc2ccc(Cl)cc2)cc1F` [I-254] yielded a concentration for half-maximal inhibition (IC50) of 20 nM.

`CC(C)Oc1ccc(Nc2ncc(Br)c(=O)n2Cc2ccc(Cl)cc2)cc1F` [I-257] showed an IC50 of 319 nM. This IC50 lies about 16-fold higher than the previous one. Next, `CC(C)Oc1ccc(Nc2ncc(C(N)=O)c(=O)n2Cc2ccc(Cl)cc2)cc1F` [I-258]: 47 nM. In turn, `CC(C)Oc1ccc(Nc2ncc(C#N)c(=O)n2Cc2ccc(Cl)cc2)cc1F` [I-259] came in with an IC50 of 436 nM.

In the case of `CCCC(=O)Nc1cnc(Nc2ccc(OC(C)C)c(F)c2)n(Cc2ccc(Cl)cc2)c1=O` [I-260], half-maximal inhibition (IC50) was put at 15 nM. Then `CCc1nc2ccc(Nc3ncc(NC(=O)C4CCOCC4)c(=O)n3Cc3ccc(Cl)cc3)cc2s1` [I-262], with 3 nM. Then `Cc1nc2ccc(Nc3ncc(NC(=O)C4CCOCC4)c(=O)n3Cc3ccc(Cl)cc3)cc2s1` [I-264], with 4 nM; and `Cc1ccc(Oc2ccc(Nc3ncc(NC(=O)C4CCOCC4)c(=O)n3Cc3ccc(Cl)cc3)cc2)cn1` [I-265], with 1 nM; and `CC(C)Oc1ccc(Nc2ncc(C(=O)NNC=O)c(=O)n2Cc2ccc(Cl)cc2)cc1F` [I-266], with 55 nM. Next, `CC(=O)OC(C)(C)C(=O)Nc1cnc(Nc2ccc(OC(C)C)c(F)c2)n(Cc2ccc(Cl)cc2)c1=O` [I-267]: 25 nM; `CC(C)Oc1ccc(Nc2ncc(NC(=O)C(C)(C)O)c(=O)n2Cc2ccc(Cl)cc2)cc1F` [I-268]: 4 nM. `CC(C)Oc1ccc(Nc2ncc(NC(=O)CCO)c(=O)n2Cc2ccc(Cl)cc2)cc1F` [I-269] had an IC50 of 31 nM. Then `CC(=O)N1CCC(C(=O)Nc2cnc(Nc3ccc(OC(C)C)c(F)c3)n(Cc3ccc(Cl)cc3)c2=O)CC1` [I-270], with 10 nM; and `CC(C)Oc1ccc(Nc2ncc(C(=O)NNC(=O)OC(C)(C)C)c(=O)n2Cc2ccc(Cl)cc2)cc1F` [I-271], with 29 nM; and `CC(C)Oc1ccc(Nc2ncc(C(=O)NN)c(=O)n2Cc2ccc(Cl)cc2)cc1F` [I-272], with 104 nM.

`COc1cc(C(=O)Nc2cnc(Nc3ccc(OC(C)C)c(F)c3)n(Cc3ccc(Cl)cc3)c2=O)ccn1` [I-273] returned an IC50 of 95 nM. For the molecule `COc1ccc(C(=O)Nc2cnc(Nc3ccc(OC(C)C)c(F)c3)n(Cc3ccc(Cl)cc3)c2=O)cn1` [I-274], the IC50 amounted to 66 nM. The IC50 values of the last two molecules are within 1.5-fold of each other.

These data come from patent US9212130B2, “Heterocyclic derivative and pharmaceutical composition comprising the same” (SHIONOGI & CO., LTD., priority 2010, dated 2015).
